Values after ≈ are worked out from the molar mass of the structure shown.

In general, GI50 refers to the concentration at which growth is held to half of that of the control. The IC50 is the midpoint of a concentration-inhibition curve. A higher IC50 goes with weaker potency in that assay.

Assay [1] has as its system P388 leukemia cell lines. Kind of assay: In vitro cytotoxicity (SRB) against P388 leukemia cell line. The format is cell-based, mouse. The following applies: 48 hours incubation. As for the experimental part: (§1) Newly prepared compounds were evaluated for cytotoxic activity against a variety of cell lines derived from human tumors using an assay system similar to the National Cancer Institute procedure previously described (Monks et al, J. Natl. Cancer Inst., 1991). Briefly, the cell suspensions, diluted according to the particular cell type and the expected target cell density (5,000-40,000 cells per well based on cell growth characteristics), were added by pipet (100 μl) to 96-well microtiter plates. Inoculates were allowed a preincubation time of 24-28 hours at 37° C. for stabilization. Incubation with the inhibitor compounds lasted for 48 hours in 5% CO2 atmosphere and 100% humidity. Determination of cell growth was performed by in situ fixation of cells, followed by staining with a protein-binding dye sulforhodamine B (SRB), which binds to the basic amino acids of cellular macromolecules. The solubilized stain was measured spectrophotometrically.
Several compounds were evaluated for cytotoxic activity against […] P388 leukemia cell lines. […] These and additional compounds were evaluated in terms of growth inhibitory activity against several other human cancer cell lines including: central nervous system (“CNS”, SF-268), pancreas (BXPC-3), non-small cell lung cancer (“lung-NSC”, NCI-H460), breast (MCF-7), colon (KM20L2), ovarian (OVCAR-3), and prostate (DU-145). […]

In assay [2] the test system is SF-268 (CNS) cancer cell line. Kind of assay: In vitro growth inhibition (SRB), SF-268. The assay is classed as cell-based, human. The following applies: 48 hours; for GI50: Homo sapiens. As for the experimental part: as §1
(§2) Several compounds were evaluated for cytotoxic activity against […] P388 leukemia cell lines. The effective dose or ED50 value (defined as the effective dosage required to inhibit 50% of cell growth) was measured. These and additional compounds were evaluated in terms of growth inhibitory activity against several other human cancer cell lines including: central nervous system (“CNS”, SF-268), pancreas (BXPC-3), non-small cell lung cancer (“lung-NSC”, NCI-H460), breast (MCF-7), colon (KM20L2), ovarian (OVCAR-3), and prostate (DU-145). The growth inhibition GI50 (defined as the dosage required to inhibit tumor cell growth by 50%) is listed for each cell line.

The test system of assay [3] is BXPC-3 (pancreas) cancer cell line. Briefly: In vitro growth inhibition (SRB), BXPC-3. The assay is classed as cell-based, human. The following applies: 48 hours; for GI50: Homo sapiens. As to the method: as §1, §2
Assay [4] concerns NCI-H460 (lung-NSC) cancer cell line. Briefly: In vitro growth inhibition (SRB), NCI-H460. The assay is classed as cell-based, human. The conditions noted are these: 48 hours; for GI50: Homo sapiens. As for the experimental part: as §1, §2
Assay [5] relates to MCF-7 (breast) cancer cell line. Kind of assay: In vitro growth inhibition (SRB), MCF-7. The assay is classed as cell-based, human. The conditions noted are these: for GI50: Homo sapiens, MCF7, 48 hours. As for the experimental part:
as §1, §2

Assay [6] has as its system KM20L2 (colon) cancer cell line. Kind of assay: In vitro growth inhibition (SRB), KM20L2. The assay is classed as cell-based, human. The following applies: for GI50: Homo sapiens, KM-20L2, 48 hours. As to the method: as §1, §2
The subject of assay [7] is DU-145 (prostate) cancer cell line. Kind of assay: In vitro growth inhibition (SRB), DU-145. The format is cell-based, human. The conditions noted are these: 48 hours; for GI50: Homo sapiens. As for the experimental part:
as §1, §2

Assay [8] deals with MHEC-5T hemangioendothelioma tumor. Briefly: Inhibition of tumor blood flow, Fluorescent Bead Assay. The format is in vivo, SCID mice. The following applies: 24 hours post-treatment, vessel area per tumor tissue area as percentage of control. As to the method:
The antivascular effects of the chromene phosphate prodrug were assessed in tumor-bearing mice using a Fluorescent Bead Assay. A MHEC-5T hemangioendothelioma tumor model was established by subcutaneous injection of 0.5×10^6 cultured transformed cell murine myocardial vascular endothelial cell line (“MHEC5-T”) cells into the right flank of Fox Chase CB-17 Severe Combined Immunodeficient (“SCID”) mice. […] At 24 hours post-treatment, mice were injected intravenously with 0.25 ml of diluted FluoSphere beads (1:6 in physiological saline) in the tail vein, sacrificed after 3 minutes, and tumor was excised for cryosectioning. Tumor cryosections at a thickness of 8 um were directly examined using quantitative fluorescent microscopy. Blood vessels were indicated by blue fluorescence from injected beads. For quantification, image analysis of 3 sections from three tumors treated in each group were examined and vascular shutdown was expressed as vessel area (mm^2) per tumor tissue area (mm^2) as a percentage of the control (“% VAPM”).

Assay [9] concerns purified tubulin. Kind of assay: In vitro inhibition of tubulin polymerization. The assay is classed as biochemical. The conditions noted are these: purified bovine brain tubulin 1.5 mg/ml, 15 min preincubation at 37° C., GTP-induced, 350 nm. As for the experimental part:
IC50 values for tubulin polymerization were determined according to a previously described procedure (Bai et al., Cancer Research, 1996). Purified tubulin is obtained from bovine brain cells as previously described (Hamel and Lin, Biochemistry, 1984). Various amounts of inhibitor were preincubated for 15 minutes at 37° C. with purified tubulin. After the incubation period, the reaction was cooled and GTP was added to induce tubulin polymerization. Polymerization was then monitored in a Gilford spectrophotometer at 350 nm. The final reaction mixtures (0.25 ml) contained 1.5 mg/ml tubulin, 0.6 mg/ml microtubule-associated proteins (MAPs), 0.5 mM GTP, […], 4% DMSO and 0.1M 4-morpholineethanesulfonate buffer (MES, pH 6.4). IC50 is the amount of inhibitor needed to inhibit tubulin polymerization 50% with respect to the amount of […] that occurs in the absence of inhibitor.

Regarding “3-(3′,4′,5′-Trimethoxybezoyl)-7-methoxy-2H-chromene-phosphate salt [Compound 7]”, the “ED50 for P-388 Cell Line” value in assay [1] was 0.173 µg/mL. The “GI50 for Cell Line SF-268” value in assay [2] is 0.034 µg/mL. The “GI50 for Cell Line BXPC-3” value in [3] worked out at 0.44 µg/mL. Moreover, in assay [4], the “GI50 for Cell Line NCI-H460” value is 0.14 µg/mL. For the same molecule, the “GI50 for Cell Line MCF-7” value in assay [5] (48 hours) is 0.056 µg/mL. Moreover, in assay [6] (48 hours), the “GI50 for Cell Line KM20L2” value was 3.5 µg/mL. Moreover, the “GI50 for Cell Line DU-145” value in [7] stood at 0.18 µg/mL. Besides, in [8] (10 mg/kg single i.p. dose), the “% VAPM at 10 mg/kg dose” value is on record as 57%. In assay [8] (100 mg/kg single i.p. dose), the “% VAPM at 100 mg/kg dose” value was 33%.
With `COc1ccc2c(c1O)OCC(C(=O)c1cc(OC)c(OC)c(OC)c1)=C2` [Compound 5, 3-(3′,4′,5′-Trimethoxybezoyl)-7-methoxy-8-hydroxy-2H-chromene], the 50% growth inhibitory concentration (GI50) is 0.022 µg/mL (≈ 0.0591 µM) in assay [2]; 3.5 µg/mL (≈ 9.4 µM) in [3]; 0.46 µg/mL (≈ 1.24 µM) in assay [4]; 0.0055 µg/mL (≈ 0.0148 µM) in assay [5]; 3.2 µg/mL (≈ 8.59 µM) in assay [6]; 0.049 µg/mL (≈ 0.132 µM) in [7].
As to `COc1ccc2c(c1)OCC(C(=O)c1cc(OC)c(OC)c(OC)c1)=C2` [Compound 8, 3-(3′, 4′, 5′-Trimethoxybenzoyl)-7-methoxy-2H-chromene], the GI50 in assay [2] is 0.32 µg/mL (≈ 0.898 µM); in assay [3] it was 0.27 µg/mL (≈ 0.758 µM); in [4], 0.3 µg/mL (≈ 0.842 µM); in assay [5], 0.3 µg/mL (≈ 0.842 µM); in [6], 0.47 µg/mL (≈ 1.32 µM); in assay [7], 0.26 µg/mL (≈ 0.73 µM).
With `COc1cc2c(cc1O)C=C(C(=O)c1cc(OC)c(OC)c(OC)c1)CO2` [Compound 9, 3-(3′, 4′, 5′-Trimethoxybenzoyl)-6-hydroxy-7-methoxy-2H-chromene], the IC50 in assay [9] lay within 1 to 4 µM. Besides, in [1], the “ED50 for P-388 Cell Line” value was 0.25 µg/mL. In addition, the GI50 stood at 0.45 µg/mL (≈ 1.21 µM) in [2]; 0.27 µg/mL (≈ 0.725 µM) in [3]; 0.32 µg/mL (≈ 0.859 µM) in assay [4]; 0.069 µg/mL (≈ 0.185 µM) in assay [5]; 2.3 µg/mL (≈ 6.18 µM) in assay [6]; 0.16 µg/mL (≈ 0.43 µM) in assay [7].

Source of the values: US20050245489A1, “Chromene-containing compounds with anti-tubulin and vascular targeting activity” (priority 2004, published 2005).
